These results are taken from patent US7601716B2, “Pyridopyrazines and derivatives thereof as ALK and c-Met inhibitors” (Cephalon, Inc., priority 2006, dated 2009).

Structures are written as SMILES. Structures can show the parent of a compound that is named as a salt.

In test [1] the target is baculovirus-expressed ALK (Homo sapiens, UniProt Q9UM73). In words: ALK Kinase Assay (ELISA/TRF, PLC-γ substrate). Further: 1 µM ATP (Km level). In kind it is biochemical. Conditions: read-out: ALK Kinase Inhibition (IC50). The procedure, abridged:
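GST-PLC-γ coat 10 μg/mL/TBS; 30 ng/ml ALK, 37° C, 15 min; Eu-PT66 anti-pTyr 1 h 37° C, enhancement, TRF. IC50: % inhib vs log10[cpd], variable-slope sigmoid.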

Test [2] has as its target T1, c-Met (cytoplasmic domain) (Homo sapiens, UniProt P08581).
T1 construct: Reactions were initiated with 30 ng/mL c-Met (cytoplasmic domain, Invitrogen Corporation #PV3143); purchased Invitrogen Corporation PV3143
In words: c-Met Kinase Assay (ELISA/TRF, PLC-γ substrate). The class given is biochemical. Conditions: 3 μM ATP (Km level); read-out: c-Met Kinase Inhibition (IC50). The procedure, abridged:
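c-Met cytoplasmic domain (30 ng/mL) phosphorylates plate-coated GST–PLC-γ for 15 min at 37 °C. Phosphotyrosine detected with Eu-labeled PT66 antibody by time-resolved fluorescence. IC50 from variable-slope sigmoidal fit of % inhibition vs log concentration.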

T1 sequence (P08581 956-1390 limits assumed): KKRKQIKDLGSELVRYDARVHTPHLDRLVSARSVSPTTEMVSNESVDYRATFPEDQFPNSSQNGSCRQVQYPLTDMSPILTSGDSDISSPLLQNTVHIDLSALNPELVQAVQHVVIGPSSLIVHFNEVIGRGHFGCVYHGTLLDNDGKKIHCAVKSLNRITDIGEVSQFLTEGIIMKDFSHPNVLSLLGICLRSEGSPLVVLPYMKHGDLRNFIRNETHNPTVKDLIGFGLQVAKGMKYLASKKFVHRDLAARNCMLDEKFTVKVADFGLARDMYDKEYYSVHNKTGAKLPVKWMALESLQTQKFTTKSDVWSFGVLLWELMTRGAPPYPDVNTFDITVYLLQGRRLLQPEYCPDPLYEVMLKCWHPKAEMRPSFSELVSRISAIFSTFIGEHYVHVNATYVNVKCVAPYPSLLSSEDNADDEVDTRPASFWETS
Sequence of baculovirus-expressed ALK (Q9UM73 19-1620): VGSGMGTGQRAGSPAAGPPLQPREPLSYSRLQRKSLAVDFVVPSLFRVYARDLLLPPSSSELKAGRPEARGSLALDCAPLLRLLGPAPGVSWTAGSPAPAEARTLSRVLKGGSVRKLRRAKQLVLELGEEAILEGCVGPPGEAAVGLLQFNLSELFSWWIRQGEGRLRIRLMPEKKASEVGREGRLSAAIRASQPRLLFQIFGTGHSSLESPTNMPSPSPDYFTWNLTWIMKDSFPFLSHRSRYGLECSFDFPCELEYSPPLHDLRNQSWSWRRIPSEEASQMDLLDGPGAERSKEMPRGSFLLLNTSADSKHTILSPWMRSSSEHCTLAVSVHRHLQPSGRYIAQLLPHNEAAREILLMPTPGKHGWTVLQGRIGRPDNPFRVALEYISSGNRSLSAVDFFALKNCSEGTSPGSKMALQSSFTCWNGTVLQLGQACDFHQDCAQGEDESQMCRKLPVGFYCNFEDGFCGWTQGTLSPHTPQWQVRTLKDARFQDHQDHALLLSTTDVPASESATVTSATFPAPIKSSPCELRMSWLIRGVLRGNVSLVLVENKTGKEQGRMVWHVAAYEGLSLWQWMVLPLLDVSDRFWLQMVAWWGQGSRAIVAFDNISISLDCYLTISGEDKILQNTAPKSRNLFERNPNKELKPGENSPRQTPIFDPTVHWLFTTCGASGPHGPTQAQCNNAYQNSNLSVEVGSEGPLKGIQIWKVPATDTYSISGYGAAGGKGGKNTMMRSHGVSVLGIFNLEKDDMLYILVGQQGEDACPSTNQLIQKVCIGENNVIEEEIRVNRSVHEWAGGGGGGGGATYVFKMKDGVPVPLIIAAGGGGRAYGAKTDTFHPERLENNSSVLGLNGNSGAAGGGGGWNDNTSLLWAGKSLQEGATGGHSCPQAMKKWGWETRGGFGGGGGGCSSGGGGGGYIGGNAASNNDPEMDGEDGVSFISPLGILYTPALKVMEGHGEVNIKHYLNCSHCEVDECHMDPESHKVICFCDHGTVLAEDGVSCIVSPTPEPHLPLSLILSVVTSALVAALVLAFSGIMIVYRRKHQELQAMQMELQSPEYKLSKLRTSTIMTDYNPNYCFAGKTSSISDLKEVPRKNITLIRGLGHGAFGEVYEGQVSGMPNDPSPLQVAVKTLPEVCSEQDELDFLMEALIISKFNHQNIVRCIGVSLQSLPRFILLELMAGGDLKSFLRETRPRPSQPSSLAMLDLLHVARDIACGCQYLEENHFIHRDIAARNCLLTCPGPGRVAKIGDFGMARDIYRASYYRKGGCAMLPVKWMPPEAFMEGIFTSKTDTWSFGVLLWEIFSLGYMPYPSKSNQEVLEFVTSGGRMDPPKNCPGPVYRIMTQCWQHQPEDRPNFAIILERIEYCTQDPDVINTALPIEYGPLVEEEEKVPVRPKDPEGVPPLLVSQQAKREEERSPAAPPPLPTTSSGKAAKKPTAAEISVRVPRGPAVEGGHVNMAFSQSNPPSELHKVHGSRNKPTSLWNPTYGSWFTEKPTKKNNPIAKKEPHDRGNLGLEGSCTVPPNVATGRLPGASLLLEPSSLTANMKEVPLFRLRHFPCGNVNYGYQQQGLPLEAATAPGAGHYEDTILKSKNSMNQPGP

For `CN1CCN(C(=O)c2ccc(-c3cnc4c(c3)N(Cc3ccccc3)C(=O)CN4)cc2)CC1` [Example 25, 1-Benzyl-7-[4-(4-methylpiperazine-1-carbonyl)phenyl]-3,4-dihydro-1H-pyrido[2,3-b]pyrazin-2-one, trifluoroacetic acid salt], the results for the 50% inhibitory concentration (IC50) in test [1] and in test [2] were 1 to 10 µM and 10 to 100 µM, respectively.
For the molecule `O=C(NC1Cc2ccccc2C1)c1cnc2c(c1)N(Cc1cc(Cl)ccc1Cl)CCN2` [Example 259, 1-(2,5-Dichlorobenzyl)-1,2,3,4-tetrahydropyrido[2,3-b]pyrazine-7-carboxylic acid indan-2-ylamide], the results for the IC50 in test [1] and in test [2] were 1 to 10 µM and over 100 µM, respectively.
For the molecule `CN1CCN(C(=O)c2ccc(-c3cnc4c(c3)C(Oc3cccc(Cl)c3)CCN4)cc2)CC1` (stereo not drawn) [Example 274, {4-[5-(3-Chlorophenoxy)-5,6,7,8-tetrahydro-[1,8]naphthyridin-3-yl]-phenyl}-(4-methylpiperazin-1-yl)methanone], the IC50 in test [1] and in test [2] was 1 to 10 µM in each case.
Turning to `CN1CCN(CCS(=O)(=O)Nc2ccc(-c3cnc4c(c3)N(C(=O)c3ccccc3)CCN4)cc2)CC1` [Example 47, 2-(4-Methylpiperazin-1-yl)-ethanesulfonic acid[4-(1-benzoyl-1,2,3,4-tetrahydropyrido[2,3-b]pyrazin-7-yl)phenyl]amide], the 50% inhibitory concentration (IC50) in test [1] and in test [2] was 10 to 100 µM throughout.
As to `O=C(NCCOc1ccccc1)c1cnc2c(c1)N(Cc1cc(Cl)ccc1Cl)CCN2` [Example 251, 1-(2,5-Dichlorobenzyl)-1,2,3,4-tetrahydropyrido[2,3-b]pyrazine-7-carboxylic acid (2-phenoxyethyl)amide], the 50% inhibitory concentration (IC50) in test [1] and in test [2] was 10 to 100 µM each time.
Turning to `Cc1cc(N2CCN(C(=O)c3cnc4c(c3)N(Cc3cc(Cl)ccc3Cl)CCN4)CC2)c2ccccc2n1` [Example 237, [1-(2,5-Dichlorobenzyl)-1,2,3,4-tetrahydropyrido[2,3-b]pyrazin-7-yl]-[4-(2-methylquinolin-4-yl)piperazin-1-yl]methanone], the IC50 in test [1] and in test [2] was 1 to 10 µM each time.
For the molecule `COC(=O)C(C)(C)Nc1ncc(I)cc1[N+](=O)[O-]` [Example 90, 2-(5-Iodo-3-nitro-pyridin-2-ylamino)-2-methyl-propionic acid methyl ester], the IC50 in test [1] and in test [2] was over 100 µM in each case.
`O=C(c1cnc2c(c1)N(Cc1cc(Cl)ccc1Cl)CCN2)N1CCC(O)(c2ccc(Cl)cc2)CC1` [Example 208, [4-(4-Chlorophenyl)-4-hydroxypiperidin-1-yl]-[1-(2,5-dichlorobenzyl)-1,2,3,4-tetrahydropyrido[2,3-b]pyrazin-7-yl]methanone]: the concentration for half-maximal inhibition (IC50) in test [1] is 1 to 10 µM; in test [2] it was over 100 µM.
On the same counts, the results for `O=C(NC(c1ccccc1)c1ccccc1)c1cnc2c(c1)N(Cc1cc(Cl)ccc1Cl)CCN2` [Example 233, 1-(2,5-Dichlorobenzyl)-1,2,3,4-tetrahydropyrido[2,3-b]pyrazine-7-carboxylic acid benzhydrylamide] are 1 to 10 µM and 10 to 100 µM.
For the molecule `CC(=O)c1ccc(F)cc1OC1CCNc2ncc(-c3ccc(C(=O)N4CCN(C)CC4)cc3)cc21` (stereo not drawn) [Example 277, 1-(4-Fluoro-2-{6-[4-(4-methylpiperazine-1-carbonyl)phenyl]-1,2,3,4-tetrahydro-[1,8]naphthyridin-4-yloxy}phenyl)ethanone], the IC50 in test [1] and in test [2] was 10 to 100 µM in each case.
With `CN1CCN(C(=O)c2ccc(-c3cnc4c(c3)N(Cc3c(F)ccc(F)c3Cl)C(=O)CN4)cc2)CC1` [Example 7, 1-(2-Chloro-3,6-difluorobenzyl)-7-[4-(4-methylpiperazine-1-carbonyl)phenyl]-3,4-dihydro-1H-pyrido[2,3-b]pyrazin-2-one], the IC50 in test [1] was 1 to 10 µM; in test [2], 10 to 100 µM.
As to `CC(c1cc(F)ccc1F)N1C(=O)CNc2ncc(-c3ccc(C(=O)N4CCC[C@H]4CN4CCCC4)cc3)cc21` (stereo partly drawn) [Example 151], the values for the IC50 in test [1] and in test [2] were 0.1 to 1 µM and 10 to 100 µM, respectively.
As to `O=C(NCc1cccnc1)c1cnc2c(c1)N(Cc1cc(Cl)ccc1Cl)CCN2` [Example 235, 1-(2,5-Dichlorobenzyl)-1,2,3,4-tetrahydropyrido[2,3-b]pyrazine-7-carboxylic acid (pyridin-3-ylmethyl)amide], the IC50 in test [1] lay within 1 to 10 µM; in test [2], 10 to 100 µM.
Turning to `O=C(c1cnc2c(c1)N(Cc1cc(Cl)ccc1Cl)CCN2)N1CCN(C(c2ccccc2)c2ccccc2)CC1` [Example 214, (4-Benzhydrylpiperazin-1-yl)-[1-(2,5-dichlorobenzyl)-1,2,3,4-tetrahydropyrido[2,3-b]pyrazin-7-yl]methanone], the IC50 in test [1] and in test [2] was 10 to 100 µM in each case.
With `O=C(c1ccc(-c2cnc3c(c2)N(C(=O)Cc2cc(F)ccc2F)CCN3)cc1)N1CCC(N2CCCC2)CC1` [Example 114, 2-(2,5-Difluorophenyl)-1-{7-[4-(4-(pyrrolidin-1-yl)piperidine-1-carbonyl)phenyl]-3,4-dihydro-2H-pyrido[2,3-b]pyrazin-1-yl}ethanone], the 50% inhibitory concentration (IC50) is 1 to 10 µM in test [1] and 10 to 100 µM in test [2].
Turning to `CN1CCN(C(=O)c2ccc(-c3cnc4c(c3)N(Cc3cc(F)c(F)cc3F)CCN4)cc2)CC1` [Example 86, (4-Methylpiperazin-1-yl)-{4-[1-(2,4,5-trifluorobenzyl)-1,2,3,4-tetrahydropyrido[2,3-b]pyrazin-7-yl]phenyl}-methanone], the half-maximal inhibitory concentration (IC50) in test [1] and in test [2] was 1 to 10 µM each time.
As to `O=C(c1cnc2c(c1)N(Cc1cc(Cl)ccc1Cl)CCN2)N1CCN(Cc2ccc(Cl)cc2)CC1` [Example 255, [4-(4-Chlorobenzyl)piperazin-1-yl]-[1-(2,5-dichlorobenzyl)-1,2,3,4-tetrahydropyrido[2,3-b]pyrazin-7-yl]methanone], the concentration for half-maximal inhibition (IC50) in test [1] was 1 to 10 µM; in test [2] it was over 100 µM.
On the same counts, the results for `COc1ccccc1N1CCN(C(=O)c2cnc3c(c2)N(Cc2cc(Cl)ccc2Cl)CCN3)CC1` [Example 210, [1-(2,5-Dichlorobenzyl)-1,2,3,4-tetrahydropyrido[2,3-b]pyrazin-7-yl]-[4-(2-methoxyphenyl)piperazin-1-yl]methanone] are 1 to 10 µM and 10 to 100 µM.
Take `O=C(c1cnc2c(c1)N(Cc1cc(Cl)ccc1Cl)CCN2)N1CCN(c2ncnc3ccsc23)CC1` [Example 217, [1-(2,5-Dichlorobenzyl)-1,2,3,4-tetrahydropyrido[2,3-b]pyrazin-7-yl]-(4-thieno[3,2-d]pyrimidin-4-yl-piperazin-1-yl)methanone]: the figures for the IC50 in test [1] and in test [2] were 1 to 10 µM and over 100 µM, respectively.
As for `O=C(c1cnc2c(c1)N(Cc1cc(Cl)ccc1Cl)CCN2)N1CCCC1c1cccnc1` (stereo not drawn) [Example 264, [1-(2,5-Dichlorobenzyl)-1,2,3,4-tetrahydropyrido[2,3-b]pyrazin-7-yl]-(2-pyridin-3-yl-pyrrolidin-1-yl)methanone], the IC50 in test [1] is 1 to 10 µM; in test [2], over 100 µM.
As for `O=C(NC1CCN(Cc2ccccc2)CC1)c1cnc2c(c1)N(Cc1cc(Cl)ccc1Cl)CCN2` [Example 225, 1-(2,5-Dichlorobenzyl)-1,2,3,4-tetrahydropyrido[2,3-b]pyrazine-7-carboxylic acid (1-benzyl-piperidin-4-yl)amide], the results for the IC50 in test [1] and in test [2] were 1 to 10 µM and 10 to 100 µM, respectively.
Turning to `O=C(NCc1ccncc1)c1cnc2c(c1)N(Cc1cc(Cl)ccc1Cl)CCN2` [Example 234, 1-(2,5-Dichlorobenzyl)-1,2,3,4-tetrahydropyrido[2,3-b]pyrazine-7-carboxylic acid (pyridin-4-ylmethyl)amide], the half-inhibitory concentration (IC50) in test [1] was 1 to 10 µM; in test [2], over 100 µM.
For the molecule `O=C(NCc1cc(C(F)(F)F)cc(C(F)(F)F)c1)c1cnc2c(c1)N(Cc1cc(Cl)ccc1Cl)CCN2` [Example 239, 1-(2,5-Dichlorobenzyl)-1,2,3,4-tetrahydropyrido[2,3-b]pyrazine-7-carboxylic acid 3,5-bis-(trifluoromethyl)benzylamide], the half-inhibitory concentration (IC50) in test [1] is 1 to 10 µM; in test [2], over 100 µM.
`O=C(c1cnc2c(c1)N(Cc1cc(Cl)ccc1Cl)CCN2)N1CCC(N2CCOCC2)CC1` [Example 231, [1-(2,5-Dichlorobenzyl)-1,2,3,4-tetrahydropyrido[2,3-b]pyrazin-7-yl]-(4-morpholin-4-yl-piperidin-1-yl)methanone]: the figures for the half-maximal inhibitory concentration (IC50) in test [1] and in test [2] were 1 to 10 µM and 10 to 100 µM, respectively.
`O=C(c1cnc2c(c1)N(Cc1cc(Cl)ccc1Cl)CCN2)N1CCN(c2cnccn2)CC1` [Example 241, [1-(2,5-Dichlorobenzyl)-1,2,3,4-tetrahydropyrido[2,3-b]pyrazin-7-yl]-(2,3,5,6-tetrahydro-[1,2′]bipyrazinyl-4-yl)methanone]: the concentration for half-maximal inhibition (IC50) in test [1] was 0.1 to 1 µM; in test [2], over 100 µM.
For `O=C(NCC1CCCO1)c1cnc2c(c1)N(Cc1cc(Cl)ccc1Cl)CCN2` (stereo not drawn) [Example 254, 1-(2,5-Dichlorobenzyl)-1,2,3,4-tetrahydropyrido[2,3-b]pyrazine-7-carboxylic acid (tetrahydrofuran-2-yl-methyl)amide], the values for the IC50 in test [1] and in test [2] were 1 to 10 µM and over 100 µM, respectively.
In the case of `O=C(NCCN1CCCC1)c1ccc(-c2cnc3c(c2)N(Cc2ccccc2)C(=O)CN3)cc1` [Example 12, 4-(1-Benzyl-2-oxo-1,2,3,4-tetrahydropyrido[2,3-b]pyrazin-7-yl)-N-(2-pyrrolidin-1-yl-ethyl)benzamide, trifluoroacetic acid salt], the IC50 lay within 1 to 10 µM in test [1] and 10 to 100 µM in test [2].
